One series deals with gastric secretion. The series can be described thus: Effects on gastric secretion (pylorus-ligated rats). It is filed as in vivo. To be noted: Rattus norvegicus, intraduodenal, 100 mg/kg intraduodenally, pylorus ligature, gastric juice collected after 7 hours, read-out: Rate of inhibition, Gastric secretion (%). As for the experimental part:
One group of 10 rats of body weight of from 1.5x10^-1 to 1.8x10^-1 kg (150 to 180g) was subjected to ligature of the pylorus after 24-hours fasting, under ether-anaesthesia, and one of the compounds of the present invention or the reference compound was administered as a dispersion in an aqueous 1% CMC solution into the duodenum. Only an aqueous 1% CMC solution was administered into the duodenum of a control group of 10 rats. After 7 hours from closing the abdomen, the stomach was extirpated under ether-anaesthesia to collect the gastric juice that had accumulated in it. The inhibiting effect of each drug on gastric secretion was calculated by the following formula: [formula] wherein Amount of gastric juice of control group = A ml Amount of gastric juice of test group = B ml The results are also shown in Table 1.
(§1) Note: ^* The structure of the compounds of the invention is expressed by the formula: [drawing 8] **The structure of the reference compound is expressed by the formula: [drawing 9] **Experiments were carried out on rats and the rate of inhibition was obtained at a dose of 10^-4 kg/kg (100 mg/kg) orally or intraduodenally.

The test system of another series is Aspirin-induced ulcer. Briefly: Aspirin-induced ulcer. It is filed as in vivo. To be noted: Rattus norvegicus; rats, 100 mg/kg intraduodenally, aspirin 100 mg/kg orally, 7 hours, length of erosion; read-out: Rate of inhibition, Aspirin-ulcer (%). As for the experimental part:
One group of 10 rats of body weight of from 2x10^-1 to 2.5x10^-1 kg (200 to 250 g) was subjected to laparotomy under ether-anaesthesia, after 24 hour-fasting with ad lib. taking water, to have ligature of their pylorus (according to Okabe et al., 1974). Just after the ligature, an aqueous suspension of one of the compounds of the invention in a 1% CMC solution was intraduodenally administered to the rats at a dose of 10^-4 kg/kg (100 mg/kg). After closing the abdomen, an aqueous dispersion of aspirin in a 1% CMC solution was orally administered at a dose of 10^-4 kg/kg (100 mg/kg). After 7 hours of the aspirin administration, the stomach was extirpated under ether-anaesthesia, and the length (in 10^-3m (mm)) of erosions generated on the mucosa of the glandular stomach region was measured. The sum of the length of erosion on rats of one group was represented by the ulcer coefficient. The same procedures were carried out on another group of 10 rats of the same strain (a control group) except that an aqueous 1% CMC solution was administered instead of the aqueous dispersion of one of the compounds of the present invention. The rate of inhibition of the occurrence of ulcers was obtained by calculation as in 1-2), the results being also shown in Table 1.
as §1

A further series deals with Stress ulcer. Briefly: Stress ulcer (restriction in water). It is filed as in vivo. To be noted: Rattus norvegicus, po; rats, 100 mg/kg orally, immersed in water at 23°C for 20 hours, length of erosion; read-out: Rate of inhibition, Stress ulcer (%). Here is the method:
One group of 10 rats of body weight of from 2x10^-1 to 2.5x10^-1kg (200 to 250 g) after oral administration of an aqueous suspension of the compound of the invention being tested in a 1% CMC solution at a dose of 10^-4 kg/kg (100 mg/kg) were kept in stress cages and immersed in water at a temperature of 23°C to the depth of their thorax for 20 hours to give a stress of restriction in water. Another group of 10 rats of the same strain (a control group) were also treated with the same stress, but after administration of an aqueous 1% CMC solution.
Just after removing the rats from the water, they were clubbed to death and their stomachs were extirpated. Then, about 1.5x10^-5m^3 (15 ml) of an aqueous 1% formaldehyde solution was injected into each stomach. After maintaining the formaldehyde solution in the stomachs for 10 minutes to enable the solution to contact to the inner stomach wall, each stomach was cut open along the greater curvature to examine the length of erosion (in 10" m (mm)) generated on the mucosa of the glandular stomach region under an anatomical microscope. The sum of the length of erosion for rats of one group was represented by the ulcer coefficient. The rate of inhibition of the occurrence of the ulcer by each compound was obtained by the same method as in 1-1), the results being shown also in Table 1.
as §1

The nature of series [1]: Acute oral toxicity (LD50 p.o.). To be noted: rat, in vivo, rats, read-out: Acute oral toxicity (LD50,kgx10^-6/kg).
In another series the test system is Shay's ulcer. Briefly: Shay's ulcer. To be noted: Rattus norvegicus, intraduodenal; rats, 100 mg/kg intraduodenally, pylorus ligature, 18 hours, ulcer area of forestomach; read-out: Rate of inhibition, Shay's ulcer (%). It is filed as in vivo. As for the experimental part: Two groups of rats of body weight of from 2x10^-1 to 2.5x10^-1 kg (200 to 250 g), each group consisting of 10 animals, were treated under ether-anaesthesia by ligature of the pylorus after 48 hour-fasting (during which water was taken ad lib.) and, just after the operation, an aqueous suspension of one of the compounds of the invention in a 1% solution of carboxymethylcellulose (hereinafter referred to as CMC) was administered intraduodenally to the rats in one group at a dose of 10^-4 kg/kg (100 mg/kg). The other group (control) was given an aqueous 1% solution of CMC intraduodenally. After keeping these animals for 18 hours without giving them any food and water, their stomachs were extirpated under ether anaesthesia and the area (m^2x10^-6) (mm ) of the ulcer generated on the forestomach part of the rats was determined under an anatomical microscope. The total area of the ulcers of one group was represented by an ulcer coefficient. The rate of inhibition of the occurrence of ulcers (%) was obtained by calculation according to the following formula: Rate of inhibition of the occurrence of ulcers (%)= 100 x (Ulcer coeff. of control qp) - (Ulcer coeff. of test qp) (ulcer coeff.of control gp)
as §1

The structures appear in SMILES notation.

In the case of `CCN=C(NC#N)NCCCCn1nc(-c2ccccc2)ccc1=O` [Compound No. 50, N-cyano-N'-[4-(3-oxo-6-phenyl-2-pyridazinyl)butyl]-N"-ethylguanidine], the inhibition in vivo at 100 mg/kg worked out at 59.2% with gastric secretion, 86.2% in the series with Aspirin-induced ulcer, 77.2% with Stress ulcer and 73.4% in the series on Shay's ulcer. For the same compound, in series [1], the LD50 was greater than 5000 mg/kg.

As to `CN=C(NC#N)NCCCCn1nc(-c2ccccc2)ccc1=O` [Compound No. 44, N-cyano-N'-[4-(3-oxo-6-phenyl-2-pyridazinyl)butyl]-N"-methylguanidine], the inhibition in vivo at 100 mg/kg in the series with gastric secretion came to 77.6%; with Aspirin-induced ulcer it was 97.5%; in the series on Stress ulcer it was 71.2%; in the series on Shay's ulcer it was 97.8%. Also, the LD50 in series [1] is greater than 5000 mg/kg.

`CN=C(NC#N)NCCCCn1nc(-c2ccc(Cl)cc2)ccc1=O` [Compound No. 59, N-cyano-N'-[4-{6-(4-chlorophenyl)-3-oxo-2-pyridazinyl}butyl]-N"- methylguanidine]: the inhibition in vivo at 100 mg/kg with gastric secretion came to 63.1%; in the series with Aspirin-induced ulcer, 89.5%; with Stress ulcer, 72.1%; in the series on Shay's ulcer it was 61.5%. Moreover, the LD50 in series [1] was 4800 mg/kg.

As to `CN=C(NC#N)NCCCCn1nc(-c2ccc(C)cc2)ccc1=O` [Compound No. 65, N-cyano-N'-[4-{6-(4-methylphenyl)-3-oxo-2-pyridazinyl}butyl]-N"- methylguanidine], the inhibition in vivo at 100 mg/kg in the series with gastric secretion was 58.5%; in the series with Aspirin-induced ulcer, 91.4%; with Stress ulcer it was 70.5%; in the series on Shay's ulcer it was 70.3%. The LD50 in series [1] is greater than 5000 mg/kg.

As to `CCN=C(NC#N)NCCCCCn1nc(-c2ccccc2)ccc1=O` [Compound No. 53, N-cyano-N'-[5-(3-oxo-6-phenyl-2-pyridazinyl)pentyl]-N"-ethylguanidine], the inhibition in vivo at 100 mg/kg was 68.5% in the series on gastric secretion, 90.6% with Aspirin-induced ulcer, 79% in the series on Stress ulcer and 93.2% in the series on Shay's ulcer. For the same compound, in series [1], the LD50 was greater than 5000 mg/kg.

For `CN=C(NC#N)NCCCCn1nc(-c2ccccc2)cc(C)c1=O` [Compound No. 81, N-cyano-N'-[4-(4-methyl-3-oxo-6-phenyl-2-pyridazinyl)butyl]-N"- methylguanidine], the inhibition in vivo at 100 mg/kg in the series with gastric secretion is 54.2%; in the series on Aspirin-induced ulcer, 90.8%; with Stress ulcer, 63.4%; in the series with Shay's ulcer, 72.4%. In series [1], the LD50 was greater than 5000 mg/kg.

`CN=C(NC#N)NCCSCn1nc(-c2ccccc2)ccc1=O` [Compound No. 138, N-cyano-N'-[2-{(3-oxo-6-phenyl-2-pyridazinyl)methylthio}ethyl]-N"-methylguanidine]: the inhibition in vivo at 100 mg/kg in the series with gastric secretion worked out at 70.2%; in the series on Aspirin-induced ulcer, 90.2%; with Stress ulcer, 68.2%; in the series with Shay's ulcer, 88.3%. Moreover, the LD50 in series [1] worked out at 4800 mg/kg.

With `CCN=C(NC#N)NCCCn1nc(-c2ccccc2)ccc1=O` [Compound No. 48, N-cyano-N'-[3-(3-oxo-6-phenyl-2-pyridazinyl)propyl]-N"-ethylguanidine], the inhibition in vivo at 100 mg/kg with gastric secretion came to 51.9%; with Aspirin-induced ulcer, 93.8%; in the series on Stress ulcer, 70.5%; with Shay's ulcer, 76.4%. In addition, in series [1], the LD50 is greater than 5000 mg/kg.
